Among the data in ChEMBL document CHEMBL1141430, “Alkaloids with human delta-opioid receptor binding affinity from the Australian rainforest tree Peripentadenia mearsii” (J Nat Prod, 2007) are Activity and IC50 values, retold here.

In assay [1] the target is T1, Delta-type opioid receptor (Homo sapiens, UniProt P41143). Description: Displacement of [125I]deltorphin 2 from human recombinant delta opioid receptor expressed in HEK cells at 100 uM. Type of assay: cell-based. The following applies: HEK293.
For assay [2], the target named is T1, Delta-type opioid receptor. Description: biochemical.

The source made the active and inactive calls. The calls are words filed in the database; no cut-off is given here.

T1 sequence (P41143 whole entry): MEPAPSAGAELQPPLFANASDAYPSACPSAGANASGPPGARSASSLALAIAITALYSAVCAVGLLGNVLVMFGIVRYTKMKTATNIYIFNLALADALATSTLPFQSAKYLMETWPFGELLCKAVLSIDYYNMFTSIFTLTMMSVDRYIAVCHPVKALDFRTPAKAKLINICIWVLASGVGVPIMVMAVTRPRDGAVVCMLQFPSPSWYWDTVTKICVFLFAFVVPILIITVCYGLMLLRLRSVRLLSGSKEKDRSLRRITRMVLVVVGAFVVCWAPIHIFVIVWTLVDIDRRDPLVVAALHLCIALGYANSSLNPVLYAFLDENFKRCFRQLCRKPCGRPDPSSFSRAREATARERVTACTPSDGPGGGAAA

Turning to `CCCCCC(=O)NCCC[N+]12CCC[C@@H]1CC1=C(C(=O)CC(C)O1)[C@H]2C` (stereo partly drawn), the result in assay [1] was inactive.

`CCCCCC(=O)NCCCN1CCCC1CC(=O)c1c(C)cccc1O` (stereo not drawn) [PERIPENTADENINE]: in assay [2], the midpoint of inhibition, the IC50, lay at 11.4 µM.

`CCCCCC(=O)NCCCN1CCC[C@H]1CC(=O)O` [PERIPENTONINE C] registered an IC50 in assay [2] of 30.9 µM. This IC50 lies about 2.7-fold higher than the previous one.

For orientation: IC50 means the point on the concentration scale where inhibition reaches its midpoint. High values mean lower potency, low ones higher potency.
